Experimental findings from article PMC10507085, “Pharmacological inhibition of TBK1/IKKε blunts immunopathology in a murine model of SARS-CoV-2 infection” (Nature Communications, 2023) are described below.

Holding throughout (experiment): biochemical
What all share (set-up): KINOMEscan competition binding, DNA-tagged kinase against immobilised ligand, qPCR read-out
Common to all, as to details: read-out: Percent Control
For orientation: Real-time PCR tracks product formation cycle by cycle.

In assay [1] the target is ACVR2B (Homo sapiens, UniProt Q13705).
Assay [2] addresses T1, ADRBK2 (Homo sapiens, UniProt P35626).
T1 construct: gene GRK3

For assay [3], the target named is AKT2 (Homo sapiens, UniProt P31751).
Assay [4] concerns the target CAMK2D (Homo sapiens, UniProt Q13557).
Assay [5] has as its target CDK19 (Homo sapiens, UniProt Q9BWU1).
Assay [6] concerns the target CSNK1E (Homo sapiens, UniProt P49674).
In assay [7] the target is EPHA3 (Homo sapiens, UniProt P29320).
Assay [8] deals with EPHA5 (Homo sapiens, UniProt P54756).
In assay [9] the target is ERBB2 (Homo sapiens, UniProt P04626).
The target in assay [10] is MAK (Homo sapiens, UniProt P20794).
For assay [11], the target named is MAP3K6 (Homo sapiens, UniProt O95382).
In assay [12] the target is MAPK1 (Homo sapiens, UniProt P28482).
Assay [13] addresses MAPK9 (Homo sapiens, UniProt P45984).
Assay [14] deals with MARK3 (Homo sapiens, UniProt P27448).
Assay [15] concerns the target MTOR (Homo sapiens, UniProt P42345).
Assay [16] deals with NTRK1 (Homo sapiens, UniProt P04629).
The target of assay [17] is PIK3CA (Homo sapiens, UniProt P42336).
In assay [18] the target is PIP4K2C (Homo sapiens, UniProt Q8TBX8).
Assay [19] addresses PRKCD (Homo sapiens, UniProt Q05655).
In assay [20] the target is TLK1 (Homo sapiens, UniProt Q9UKI8).

NTRK1, sequence (P04629 whole entry): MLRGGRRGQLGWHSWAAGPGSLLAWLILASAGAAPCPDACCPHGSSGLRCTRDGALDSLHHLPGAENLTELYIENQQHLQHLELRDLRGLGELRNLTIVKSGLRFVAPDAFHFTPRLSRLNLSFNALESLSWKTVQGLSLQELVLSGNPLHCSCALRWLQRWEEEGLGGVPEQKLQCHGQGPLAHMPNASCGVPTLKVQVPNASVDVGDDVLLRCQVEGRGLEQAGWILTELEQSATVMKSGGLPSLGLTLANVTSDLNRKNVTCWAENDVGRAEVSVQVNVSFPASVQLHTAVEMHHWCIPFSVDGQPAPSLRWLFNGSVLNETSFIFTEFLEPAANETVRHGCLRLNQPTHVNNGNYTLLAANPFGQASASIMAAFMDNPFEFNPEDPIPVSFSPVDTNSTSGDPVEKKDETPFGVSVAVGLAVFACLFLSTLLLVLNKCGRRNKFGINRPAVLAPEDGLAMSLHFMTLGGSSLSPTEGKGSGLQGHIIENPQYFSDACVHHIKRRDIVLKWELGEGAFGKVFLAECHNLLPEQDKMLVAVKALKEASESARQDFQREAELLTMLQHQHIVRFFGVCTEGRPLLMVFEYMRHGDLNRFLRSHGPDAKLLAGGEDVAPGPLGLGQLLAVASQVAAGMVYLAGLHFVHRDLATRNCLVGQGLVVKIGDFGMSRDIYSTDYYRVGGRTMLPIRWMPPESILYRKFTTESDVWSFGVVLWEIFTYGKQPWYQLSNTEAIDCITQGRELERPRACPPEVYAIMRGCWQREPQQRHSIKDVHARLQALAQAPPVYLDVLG
EPHA3, sequence (P29320 whole entry): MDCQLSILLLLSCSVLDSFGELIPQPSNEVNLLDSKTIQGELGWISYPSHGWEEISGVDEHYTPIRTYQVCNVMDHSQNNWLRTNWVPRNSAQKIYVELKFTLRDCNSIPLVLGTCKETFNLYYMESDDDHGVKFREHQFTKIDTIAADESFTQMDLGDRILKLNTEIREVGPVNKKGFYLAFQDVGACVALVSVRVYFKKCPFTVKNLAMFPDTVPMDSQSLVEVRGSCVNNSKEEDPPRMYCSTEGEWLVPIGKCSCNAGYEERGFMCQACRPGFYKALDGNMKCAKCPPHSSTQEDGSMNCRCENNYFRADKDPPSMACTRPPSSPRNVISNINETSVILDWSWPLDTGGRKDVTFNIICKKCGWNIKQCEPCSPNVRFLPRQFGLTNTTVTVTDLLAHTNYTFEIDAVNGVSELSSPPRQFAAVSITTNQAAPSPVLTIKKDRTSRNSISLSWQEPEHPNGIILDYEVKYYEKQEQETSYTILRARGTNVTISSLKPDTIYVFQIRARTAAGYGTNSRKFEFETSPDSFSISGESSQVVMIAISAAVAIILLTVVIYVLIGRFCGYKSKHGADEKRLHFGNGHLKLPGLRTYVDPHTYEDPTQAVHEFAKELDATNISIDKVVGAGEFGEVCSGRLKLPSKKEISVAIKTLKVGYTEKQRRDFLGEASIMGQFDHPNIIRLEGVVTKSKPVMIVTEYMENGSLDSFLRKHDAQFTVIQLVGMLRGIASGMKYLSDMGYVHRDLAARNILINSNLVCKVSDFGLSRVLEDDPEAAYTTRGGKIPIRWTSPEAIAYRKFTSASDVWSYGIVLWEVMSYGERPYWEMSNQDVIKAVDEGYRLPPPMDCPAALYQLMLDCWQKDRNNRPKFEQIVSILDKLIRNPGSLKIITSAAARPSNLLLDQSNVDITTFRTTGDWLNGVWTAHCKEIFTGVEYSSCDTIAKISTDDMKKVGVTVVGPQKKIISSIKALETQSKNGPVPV
MAK, sequence (P20794 whole entry): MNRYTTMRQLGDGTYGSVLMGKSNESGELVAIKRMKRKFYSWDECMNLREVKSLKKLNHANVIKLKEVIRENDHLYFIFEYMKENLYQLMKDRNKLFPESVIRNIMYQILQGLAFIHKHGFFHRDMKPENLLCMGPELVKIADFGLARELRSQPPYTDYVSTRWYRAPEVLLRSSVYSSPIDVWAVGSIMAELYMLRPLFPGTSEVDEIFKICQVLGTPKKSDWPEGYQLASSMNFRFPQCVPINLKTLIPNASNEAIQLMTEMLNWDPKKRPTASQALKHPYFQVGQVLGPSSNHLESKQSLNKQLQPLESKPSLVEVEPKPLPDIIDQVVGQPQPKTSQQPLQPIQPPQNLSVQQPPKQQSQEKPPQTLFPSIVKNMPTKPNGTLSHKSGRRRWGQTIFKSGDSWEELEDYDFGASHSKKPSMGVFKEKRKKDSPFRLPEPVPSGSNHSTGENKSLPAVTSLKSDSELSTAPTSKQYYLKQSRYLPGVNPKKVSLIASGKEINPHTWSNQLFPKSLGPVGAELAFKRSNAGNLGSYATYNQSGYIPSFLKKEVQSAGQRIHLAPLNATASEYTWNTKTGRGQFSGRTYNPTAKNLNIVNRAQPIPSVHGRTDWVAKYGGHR
PRKCD, sequence (Q05655 whole entry): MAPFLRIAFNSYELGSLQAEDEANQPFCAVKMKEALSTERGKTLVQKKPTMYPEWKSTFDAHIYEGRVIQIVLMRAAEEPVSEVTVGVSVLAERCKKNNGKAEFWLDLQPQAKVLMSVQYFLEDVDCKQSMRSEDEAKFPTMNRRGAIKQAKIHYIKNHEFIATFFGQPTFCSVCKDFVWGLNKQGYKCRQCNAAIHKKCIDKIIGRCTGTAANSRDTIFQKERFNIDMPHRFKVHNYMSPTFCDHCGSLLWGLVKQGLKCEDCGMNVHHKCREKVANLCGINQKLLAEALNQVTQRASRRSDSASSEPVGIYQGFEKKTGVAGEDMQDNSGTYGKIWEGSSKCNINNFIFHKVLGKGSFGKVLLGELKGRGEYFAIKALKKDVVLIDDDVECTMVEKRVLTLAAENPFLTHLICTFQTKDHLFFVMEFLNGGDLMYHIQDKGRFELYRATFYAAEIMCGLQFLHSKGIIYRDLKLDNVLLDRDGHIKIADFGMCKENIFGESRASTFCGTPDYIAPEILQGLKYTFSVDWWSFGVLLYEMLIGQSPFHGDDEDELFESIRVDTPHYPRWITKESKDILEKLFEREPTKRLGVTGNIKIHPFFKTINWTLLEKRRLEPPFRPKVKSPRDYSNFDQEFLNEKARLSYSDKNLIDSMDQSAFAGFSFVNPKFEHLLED
EPHA5, sequence (P54756 whole entry): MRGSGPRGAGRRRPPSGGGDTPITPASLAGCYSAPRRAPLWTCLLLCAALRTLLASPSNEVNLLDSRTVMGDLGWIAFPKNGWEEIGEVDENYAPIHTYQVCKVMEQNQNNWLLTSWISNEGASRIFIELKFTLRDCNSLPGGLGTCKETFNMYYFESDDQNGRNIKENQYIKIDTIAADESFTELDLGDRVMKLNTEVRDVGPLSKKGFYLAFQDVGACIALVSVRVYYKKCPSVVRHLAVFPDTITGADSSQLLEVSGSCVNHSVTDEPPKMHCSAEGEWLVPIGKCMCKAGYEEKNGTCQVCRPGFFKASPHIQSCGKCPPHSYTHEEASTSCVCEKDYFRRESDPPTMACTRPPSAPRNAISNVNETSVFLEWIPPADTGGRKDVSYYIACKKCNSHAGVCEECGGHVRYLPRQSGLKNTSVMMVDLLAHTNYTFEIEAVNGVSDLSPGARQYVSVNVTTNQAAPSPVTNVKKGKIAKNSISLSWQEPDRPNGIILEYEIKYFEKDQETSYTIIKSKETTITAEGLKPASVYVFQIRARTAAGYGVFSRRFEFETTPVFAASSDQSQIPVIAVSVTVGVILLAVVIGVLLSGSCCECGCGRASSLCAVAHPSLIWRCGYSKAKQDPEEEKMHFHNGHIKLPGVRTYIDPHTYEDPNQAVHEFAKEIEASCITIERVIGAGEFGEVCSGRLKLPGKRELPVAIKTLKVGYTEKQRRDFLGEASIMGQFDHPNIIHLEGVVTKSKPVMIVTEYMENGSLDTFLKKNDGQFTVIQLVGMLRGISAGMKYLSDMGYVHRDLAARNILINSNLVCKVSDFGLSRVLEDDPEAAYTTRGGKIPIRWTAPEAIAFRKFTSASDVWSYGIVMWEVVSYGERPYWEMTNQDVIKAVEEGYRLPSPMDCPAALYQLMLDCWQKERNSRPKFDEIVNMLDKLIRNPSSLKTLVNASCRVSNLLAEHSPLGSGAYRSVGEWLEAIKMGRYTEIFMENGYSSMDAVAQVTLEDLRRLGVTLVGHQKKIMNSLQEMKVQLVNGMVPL
PIP4K2C, sequence (Q8TBX8 whole entry): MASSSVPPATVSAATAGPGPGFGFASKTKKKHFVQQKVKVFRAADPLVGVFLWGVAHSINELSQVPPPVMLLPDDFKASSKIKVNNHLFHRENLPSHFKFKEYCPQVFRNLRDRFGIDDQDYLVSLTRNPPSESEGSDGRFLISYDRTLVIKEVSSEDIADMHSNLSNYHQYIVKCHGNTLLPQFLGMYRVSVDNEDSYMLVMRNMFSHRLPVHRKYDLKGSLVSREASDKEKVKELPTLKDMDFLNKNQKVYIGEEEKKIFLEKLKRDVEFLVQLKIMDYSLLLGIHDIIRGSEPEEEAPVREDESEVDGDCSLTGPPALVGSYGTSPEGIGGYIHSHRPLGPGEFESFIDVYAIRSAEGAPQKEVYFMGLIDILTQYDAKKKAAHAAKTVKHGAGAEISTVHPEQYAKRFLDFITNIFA
MAPK9, sequence (P45984 whole entry): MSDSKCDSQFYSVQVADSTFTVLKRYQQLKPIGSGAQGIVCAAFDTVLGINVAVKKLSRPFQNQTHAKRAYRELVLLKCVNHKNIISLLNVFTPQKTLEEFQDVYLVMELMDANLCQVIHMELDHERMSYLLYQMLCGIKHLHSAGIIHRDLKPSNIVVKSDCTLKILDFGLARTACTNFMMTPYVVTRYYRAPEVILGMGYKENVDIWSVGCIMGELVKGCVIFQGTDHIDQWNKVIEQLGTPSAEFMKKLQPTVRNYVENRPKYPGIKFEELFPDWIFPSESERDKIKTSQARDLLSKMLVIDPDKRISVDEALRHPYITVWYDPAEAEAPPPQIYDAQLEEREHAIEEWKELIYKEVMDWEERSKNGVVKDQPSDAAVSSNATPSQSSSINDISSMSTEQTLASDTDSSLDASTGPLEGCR

Regarding `Oc1ccc(C2=Cc3ccc(O)cc3OC2)cc1` [compound 1, idronoxil], the remaining binding at 10 µM came out at 53% in assay [1]; 85% in assay [2]; 90% in assay [3]; 84% in [4]; 99% in [5]; 74% in assay [6]. The remaining binding at 10 µM in assay [7] turned out to be 89%; in assay [8], 97%; in [9] it was 88%; in [10], 100%; in assay [11], 88%; in assay [12] it was 100%. Moreover, the remaining binding at 10 µM in assay [13] came to 93%; in [14], 100%; in [15], 73%; in assay [16], 91%; in [17] it was 89%; in assay [18], 52%. Besides, the remaining binding at 10 µM in assay [19] came out at 96%; in [20] it was 71%.
